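Growth conditions: 96-well plates. Treatment: test compound, 48 hours, 5 concentrations. Analysis: linear interpolation between bracketing concentrations; unreached endpoints set to highest concentration. Here, GI50 denotes the concentration required for 50% inhibition of growth.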 Calls of active or inactive are those of the source. Rule as the data show it: active = GI50 up to about 1.1 µM and inactive = higher.
Legend:
Test in all cases: NCI-60 cell line screen, 48 h
[1] = test system: T47D
[2] = test system: M19-MEL
[3] = test system: SF-539
[4] = test system: HOP-62
[5] = test system: SR
[6] = test system: NCI-H522
[7] = test system: A498
[8] = test system: 786-0
[9] = test system: MDA-MB-231
[10] = test system: DU-145
[11] = test system: SK-MEL-2
[12] = test system: UO-31
[13] = test system: SNB-75
[14] = test system: OVCAR-3
[15] = test system: Hs-578T
[16] = test system: MDA-MB-435
[17] = test system: M14
[18] = test system: DLD-1
[19] = test system: RPMI-8226
[20] = test system: PC-3

Measured: GI50

Cc1cc(NCCCCCCCNc2cc(C)nc3cc([N+](=O)[O-])ccc23)c2ccc([N+](=O)[O-])cc2n1
inactive: [1] 3.52 µM | [2] 12.4 µM | [3] 8.63 µM | [4] 20.5 µM | [5] 1.53 µM | [6] 1.61 µM | [7] 10.8 µM | [8] 4.8 µM | [9] 2.47 µM | [10] 3.08 µM | [11] 24.7 µM | [12] 13.9 µM | [13] 11.2 µM | [14] 4.38 µM | [15] 1.86 µM | [16] 11.7 µM | [17] 10.7 µM | [18] 1.82 µM | [19] 1.87 µM | [20] 13.5 µM

CC(C)OP(=O)(OC(C)C)/C(=N/Nc1ccc([N+](=O)[O-])cc1)NCCO
inactive: [2] > 100 µM | [3] > 100 µM | [4] > 100 µM | [5] > 100 µM | [6] > 100 µM | [7] 3.15 µM | [8] > 100 µM | [11] > 100 µM | [12] > 100 µM | [13] > 100 µM | [14] > 100 µM | [17] > 100 µM | [18] > 100 µM | [19] > 100 µM

COc1cc(Nc2c3ccccc3nc3ccccc23)ccc1NS(C)(=O)=O
inactive: [2] 5.93 µM | [3] 4.41 µM | [4] 7.6 µM | [5] 2.72 µM | [6] 3.42 µM | [7] 6.31 µM | [11] 7.53 µM | [12] 4.41 µM | [13] 7.46 µM | [14] 6.53 µM | [17] 3.14 µM | [18] 5.14 µM | [19] 2.83 µM
